A short description of data set [1]: Partition coefficient based on the octanol extraction method (logPoctanol). The data set is classed as physicochemical. Particulars: octanol / 10 mmol/L phosphate buffer (pH 7.4), radioactivity count. As for the experimental part: Using the obtained radioactivity count, logPoctanol was calculated in accordance with the equation (2).
Data set [2] is described as follows: Transferability into brain and clearance (Example I-16, Comparative Example I-7). The note with it: brain, rats, intravenous injection. As for the experimental part: Using Compound 6, a time course change of radioactive accumulation in brain of male Wistar rats (7-week old) was measured.
Also, radioactivity (hereinafter referred to as B in this Example) of 0.05 mL of a 1000-fold diluted solution of the injected solution was measured in the same manner as above. Using these measurement results, radioactive accumulation per unit weight of brain (% ID/g) at the respective time points was calculated in accordance with the following formula (5).

Data set [3] in a line: Transferability into brain and clearance (Example II-11, II-12, Comparative Example II-1). The data set is classed as in vivo, male Wistar rats. Particulars: brain, rats, intravenous injection.
Protocol: The rats were sacrificed by bleeding from abdominal artery, and brains were removed and subjected to measurement of mass of brains and further subjected to measurement of radioactivity (hereinafter referred to as A in this Example) with a single channel analyzer (detector type: SP-20 manufactured by OHYO KOKEN KOGYO Co., Ltd.) 2, 5, 30 and 60 minutes after the injection. Also, radioactivity (hereinafter referred to as B in this Example) of the rest of the whole body was measured in the same manner as above. Using these measurement results, radioactive accumulation per unit weight of brain (% ID/g) at the respective time points were calculated in accordance with the following formula (6).
Three animals were used for experiment at the respective time points.
For data set [4] the following is noted: [^125I]-labeled, normal mice, brain; cited from earlier work.
The conditions of data set [5]: International Publication WO03/106439 pamphlet; cited from earlier work.
For data set [6] the following is noted: [^125I]-labeled compounds; cited from earlier work.
Data set [7] deals with T1, intracerebral amyloid (aggregated Aβ1-42 injected into amygdaloid nucleus) (Homo sapiens, UniProt P05067).
T1 construct: Aβ1-42 (manufactured by Peptide Institute, Inc.) was dissolved in phosphate buffer (pH 7.4); purchased Peptide Institute, Inc
T1 sequence (P05067 672-713): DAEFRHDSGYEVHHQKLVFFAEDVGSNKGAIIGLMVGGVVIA
The experiment in a line: Ex vivo autoradiogram using rats of amyloid injected model (aggregated Aβ1-42). Particulars: rat, Aβ1-42 amyloid suspension in amygdaloid nucleus, brain removed 60 minutes after tail vein injection. The arrangement: species or system male Wistar rat. As for the experimental part: As a control, 2.5 μL of a phosphate buffered physiological saline solution (pH 7.4) was injected into an amygdaloid nucleus on the other side of the rat. The rats were examined 1 day after the injection of the amyloid suspension and the phosphate buffered physiological saline solution (pH 7.4).
(§1) (4) Brain was removed 60 minutes after the injection to prepare a brain slice of 10 μm in thickness with a microtome (type: CM3050S, manufactured by LEICA). The brain slice was exposed to an imaging plate for 20 hours, and then image analysis was carried out by use of a Bio-imaging Analyzer (type: BAS-2500; manufactured by FUJIFILM Corporation).

For data set [8] the following is noted: [^11C]-labeled, rats; cited from earlier work.
For data set [9], the system named is Salmonella typhimurium TA98 and TA100. The experiment in a line: Reverse mutation test (Ames test), overall judgment. Particulars: TA98 and TA100, regardless of addition of S9mix. The data set is classed as cell-based. As for the experimental part:
(§2) In order to examine mutagenicity of Compounds 1, 2 and 4, reverse mutation test using Salmonella typhimurium TA98 and TA100 (hereinafter referred to as Ames test) was conducted.
(§3) The test was conducted without addition of S9mix and with addition of S9mix. Dimethylsulfoxide was used as a negative control. A positive control was 2-(2-furyl)-3-(5-nitro-2-furyl)acrylamide in case S9mix was not added, and 2-aminoanthracene in case S9 mix was added.
(§4) The amount of each sample to be added to the test plate was 7 dosages (geometric ratio 4) with the maximum dose being 5000 μg/plate. After a sample to be examined and a strain (TA98 or TA100), or a sample to be examined, S9mix and the strain were mixed together, the mixture was multilayered using soft agar on a medium of a test plate, and then incubated at 37° C. for 48 hours.
(§5) In order to examine mutagenicity of Compound 8, reverse mutation test using Salmonella typhimurium TA98 and TA100 (hereinafter referred to as Ames test) was conducted.
(§6) The test was conducted without addition of S9mix and with addition of S9mix. Dimethylsulfoxide was used as a negative control. A positive control was 2-(2-furyl)-3-(5-nitro-2-furyl)acrylamide in case S9mix was not added, and 2-aminoanthracene in case S9mix was added.
(§7) The amount of Compound 8 to be added to the test plate was 7 dosages (geometric ratio 3) with the maximum dose being 5000 μg/plate. After Compound 8 and a strain (TA98 or TA100), or Compound 8, S9mix and the strain were mixed together, the mixture was multilayered using soft agar on a medium of a test plate, and then incubated at 37° C. for 48 hours.
On the technique in general: The Ames test uses bacterial strains that need an amino acid and regain growth without it when mutated back.

The test system of data set [10] is Salmonella typhimurium TA100. Description: Reverse mutation test (Ames test), TA100. The data set is classed as cell-based. Particulars: maximum 5000 μg/plate. As for the experimental part:
as §2, §3, §4, §5, §6, §7

In data set [11] the test system is Salmonella typhimurium TA98. The experiment in a line: Reverse mutation test (Ames test), TA98. The data set is classed as cell-based. Particulars: maximum 5000 μg/plate. How it is done:
as §2, §3, §4, §5, §6, §7

Data set [12] concerns the target intracerebral amyloid (aggregated Aβ1-40 injected into amygdaloid nucleus) (Homo sapiens, UniProt P05067). The note with it: rat, Aβ1-40 amyloid suspension in amygdaloid nucleus, brain removed 60 minutes after tail vein injection. As for the experimental part: The following experiment was carried out in order to examine whether amyloid in brain can be imaged by the compound of the present invention.
The rats were examined 1 day after the injection of the amyloid suspension and the phosphate buffered physiological saline solution (pH 7.4).
as §1

SMILES strings stand for the structures. Where two headings read alike, the source gives them in different places.

Sequence of intracerebral amyloid (aggregated Aβ1-40 injected into amygdaloid nucleus) (P05067 672-711): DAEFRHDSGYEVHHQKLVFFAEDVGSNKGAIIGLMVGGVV

Regarding `Oc1ccc(-c2cn3cc([123I])cnc3n2)cc1` [Compound 9, [^123I]-2-(4′-hydroxyphenyl)-6-iodoimidazo[1,2-a]pyrimidine], the logPoctanol value in data set [1] stood at 1.7.
For `CN(C)c1ccc(-c2cn3cc([123I])ccc3n2)cc1` [^123I-IMPY, reference compound], in data set [2], the “Radioactive accumulation per unit weight, After 2 min.” value was found to be 1.02 % ID/g; the “Radioactive accumulation per unit weight, After 5 min.” value came out at 0.99 % ID/g; the “Radioactive accumulation per unit weight, After 30 min.” value stood at 0.20 % ID/g; the “Radioactive accumulation per unit weight, After 60 min.” value is reported as 0.08 % ID/g. For the same molecule, in data set [3], the “Radioactive accumulation per unit weight, After 2 min.” value is given as 1.19 % ID/g; the “Radioactive accumulation per unit weight, After 5 min.” value was 0.97 % ID/g; the “Radioactive accumulation per unit weight, After 30 min.” value turned out to be 0.23 % ID/g; the “Radioactive accumulation per unit weight, After 60 min.” value came out at 0.09 % ID/g.
For the molecule `CN(C)c1ccc(/C=C/c2ccc(I)cc2)cc1` [m-I-SB, (E)-4-dimethylamino-4′-iodostilbene], in [4], the “Clearance from normal tissues” value is recorded as “insufficient in clearance from normal tissues”.
For the molecule `CN(C)c1ccc(-c2cn3cc(I)ccc3n2)cc1` [IMPY, 6-iodo-2-[4′-(N,N-dimethylamino)phenyl]imidazo[1,2-a]pyridine], the “Reverse mutation test result” value in [5] is given as “positive”. Also, the “Clearance from normal tissues” value in data set [6] is “rapid clearance from normal tissues”.
`Oc1ccc(-c2cn3cccc([123I])c3n2)cc1` [Compound 11, [^123I]-2-(4′-hydroxyphenyl)-8-iodoimidazo[1,2-a]pyridine]: the logPoctanol value in data set [1] is given as 3.0. Further, in data set [3], the “Radioactive accumulation per unit weight, After 2 min.” value worked out at 0.65 % ID/g; the “Radioactive accumulation per unit weight, After 5 min.” value worked out at 0.43 % ID/g; the “Radioactive accumulation per unit weight, After 30 min.” value was 0.09 % ID/g; the “Radioactive accumulation per unit weight, After 60 min.” value is given as 0.03 % ID/g. Further, the “Accumulation of radioactivity in the amygdaloid nucleus on the amyloid-injected side (autoradiogram of brain slice)” value in data set [7] was “marked accumulation of radioactivity”.
With `CNc1ccc(/C=C/c2ccc(O)cc2)cc1` [SB-13, (E)-4-methylamino-4′-hydroxystilbene], in data set [8], the “Clearance from normal tissues” value is listed as “it cannot be said that the clearance is sufficiently fast”.
On to `Oc1ccc(-c2cn3cc(Br)ccc3n2)cc1` [Compound 1, 6-bromo-2-(4′-hydroxyphenyl)imidazo[1,2-a]pyridine], for which the “Judgment in the Ames test (mutagenicity)” value in data set [9] is reported as “negative”. Also, in [10] (7 dosages (geometric ratio 4)), the “Mutagenicity, With addition of S9mix, TA100” value is “Negative” and the “Mutagenicity, Without addition of S9mix, TA100” value is listed as “Negative”. Further, in data set [11] (7 dosages (geometric ratio 4)), the “Mutagenicity, With addition of S9mix, TA98” value was “Negative” and the “Mutagenicity, Without addition of S9mix, TA98” value is given as “Negative”.
On to `Oc1ccc(-c2cn3cc([123I])ccc3n2)cc1` [Compound 6, [^123I]-2-(4′-hydroxyphenyl)-6-iodoimidazo[1,2-a]pyridine], for which the “Accumulation of radioactivity on intracerebral amyloid (autoradiogram of brain slice)” value in data set [12] is on record as “possesses a property of accumulating on intracerebral amyloid”. In [2], the “Radioactive accumulation per unit weight, After 2 min.” value was 0.96 % ID/g; the “Radioactive accumulation per unit weight, After 5 min.” value is on record as 0.69 % ID/g; the “Radioactive accumulation per unit weight, After 30 min.” value turned out to be 0.16 % ID/g; the “Radioactive accumulation per unit weight, After 60 min.” value was 0.04 % ID/g.
On to `CN(C)c1ccc(-c2cn3cc([125I])ccc3n2)cc1` [[^125I]-IMPY, reference compound], for which the logPoctanol value in [1] was determined as 2.1.
On to `CN(C)c1ccc(-c2nc3ccc(I)cc3s2)cc1` [TZDM, 6-iodo-2-[4′-(N,N-dimethylamino)phenyl]benzothiazole], for which the “Clearance from normal tissues” value in [4] is listed as “insufficient in clearance from normal tissues”.
Take `CN(C)c1ccc(-c2nc3ccc(I)cc3o2)cc1` [IBOX, 6-iodo-2-[4′-(N,N-dimethylamino)phenyl]benzoxazole]: in data set [4], the “Clearance from normal tissues” value is “insufficient in clearance from normal tissues”.
Consider `Oc1ccc(-c2cn3cc(I)cnc3n2)cc1` [Compound 4, 2-(4′-hydroxyphenyl)-6-iodoimidazo[1,2-a]pyrimidine], for which the “Judgment in the Ames test (mutagenicity)” value in data set [9] is listed as “negative”. Besides, in data set [10] (7 dosages (geometric ratio 4)), the “Mutagenicity, With addition of S9mix, TA100” value is “Negative” and the “Mutagenicity, Without addition of S9mix, TA100” value was “Negative”. In data set [11] (7 dosages (geometric ratio 4)), the “Mutagenicity, With addition of S9mix, TA98” value is listed as “Negative” and the “Mutagenicity, Without addition of S9mix, TA98” value is “Negative”.
Turning to `Oc1ccc(-c2cn3cc([125I])ccc3n2)cc1` [Compound 5, [^125I]-2-(4′-hydroxyphenyl)-6-iodoimidazo[1,2-a]pyridine], the logPoctanol value in data set [1] amounted to 1.6.
As to `Oc1ccc(-c2cn3cc([123I])ncc3n2)cc1` [Compound 10, [^123I]-2-(4′-hydroxyphenyl)-6-iodoimidazo[1,2-a]pyrazine], in [1], the logPoctanol value is 2.3. Besides, in data set [3], the “Radioactive accumulation per unit weight, After 2 min.” value worked out at 0.62 % ID/g; the “Radioactive accumulation per unit weight, After 5 min.” value is given as 0.33 % ID/g; the “Radioactive accumulation per unit weight, After 30 min.” value worked out at 0.08 % ID/g; the “Radioactive accumulation per unit weight, After 60 min.” value is reported as 0.02 % ID/g. Moreover, the “Accumulation of radioactivity in the amygdaloid nucleus on the amyloid-injected side (autoradiogram of brain slice)” value in data set [7] was “marked accumulation of radioactivity”.
As to `CC(=C(C#N)C#N)c1ccc2cc(N(C)CCF)ccc2c1` [FDDNP, 2-(1-{6-[(2-fluoroethyl)(methyl)amino]-2-naphthyl}ethylidene)malononitrile], the “Reverse mutation test result” value in [5] is “positive”.
For the molecule `Oc1ccc(-c2cn3cc(I)ncc3n2)cc1` [Compound 8, 2-(4′-hydroxyphenyl)-6-iodoimidazo[1,2-a]pyrazine], the “Judgment in the Ames test (mutagenicity)” value in data set [9] is “negative”. In data set [10] (7 dosages (geometric ratio 3)), the “Mutagenicity, With addition of S9mix, TA100” value is given as “Negative” and the “Mutagenicity, Without addition of S9mix, TA100” value is listed as “Negative”. Further, in data set [11] (7 dosages (geometric ratio 3)), the “Mutagenicity, With addition of S9mix, TA98” value is “Negative” and the “Mutagenicity, Without addition of S9mix, TA98” value is recorded as “Negative”.
For the molecule `Oc1ccc(-c2cn3cc(I)ccc3n2)cc1` [Compound 2, 2-(4′-hydroxyphenyl)-6-iodoimidazo[1,2-a]pyridine], the “Judgment in the Ames test (mutagenicity)” value in [9] is on record as “negative”. Moreover, in [10] (7 dosages (geometric ratio 4)), the “Mutagenicity, With addition of S9mix, TA100” value is listed as “Negative” and the “Mutagenicity, Without addition of S9mix, TA100” value is “Negative”. Further, in [11] (7 dosages (geometric ratio 4)), the “Mutagenicity, With addition of S9mix, TA98” value is given as “Negative” and the “Mutagenicity, Without addition of S9mix, TA98” value is listed as “Negative”.
